# Results: article PMC11840605, “Crystallographic and Thermodynamic Evidence of Negative Coupling in the Flavin-Dependent Tryptophan Halogenases AbeH and BorH” (ACS Omega, 2025)
# Where “and” joins values, the source holds several entries; their conditions need not be identical. Equal entries are not always repeated. Entries after “also recorded” stand apart in the source; their conditions may differ.
# Legend:
# BorH [1] = molecular target: T1, BorH (uncultured bacterium, UniProt M9QSI0); test: Isothermal titration calorimetry, ligand into BorH; assay type: binding, uncultured soil actinomycetes
# Procedure: (§1) Solutions of AbeH, BorH, FAD (Chem-Implex), and Trp (Acros Organics) were prepared in the same buffer and degassed under vacuum at 30 °C for 20 min before loading in the syringe or cell. To analyze formation of binary complexes, AbeH or BorH was placed inside the cell, and ligand (FAD or Trp) was injected. For ternary complex titration, one ligand was preincubated with the macromolecule for 30 min at 30 °C to form binary complexes of AbeH/FAD, AbeH/Trp, BorH/FAD, and BorH/Trp before titrating with the second ligand. To test FADH2 binding to AbeH and BorH, FAD was reduced to FADH2 using sodium dithionite and stored under N2. Formation of FADH2 by sodium dithionite was verified using absorbance and fluorescence spectrophotometry.
# (§2) ITC experiments were performed with reference power set to 10 μcal/s and Milli-Q water in the reference cell. All experiments were done with a pretitration delay of 20 min, a 5 min interval between injections, and a filter period of 2 s in high feedback gain mode. All experiments were performed at 310 rpm to mix the components in cell and titrant. All other VP-ITC instrumental parameters were set to default settings. Heats of dilution for all titrants were measured by titrating ligand into buffer for binary complex titrations, and by titrating ligand into a solution containing the other ligand but no protein for ternary complex titration.
# (§3) Titrations were analyzed by manually integrating each injection, subtracting the heat of dilution, and carrying out nonlinear least-squares fit of the calorimetric binding data to a one-site model using Origin 7.0 (Origin Lab). Trp binding experiments were subtracted by point-by-point heat of dilution, and FAD and FADH2 binding experiments were subtracted using the mean heat of the last three injections. For the Trp binding data, n was fixed to 1 based on expected stoichiometry of 1:1 based on FDH crystal structures and as proposed for lower c-value titrations in the literature.[23],[25],[82] The other parameters were not constrained during fitting.
# AbeH [2] = molecular target: T2, AbeH (uncultured bacterium, UniProt F6LWA5); test: Isothermal titration calorimetry, ligand into AbeH; assay type: binding, uncultured soil actinomycetes
# Procedure: as §1, with “ITC experiments were performed using a VP-ITC isothermal titration calorimeter (MicroCal) in 20 mM HEPES pH 7.5, 350 mM NaCl, 1 mM ethylenediamine tetraacetic acid (EDTA) and 15% (v/v) glycerol. Solutions” for “Solutions”
# as §2
# 1.2 mM FAD (2 μL/1 and 5 μL/19 injections) into 18 μM AbeH (Figure 4A)
# 0.12 mM FADH2 (2 μL/1 and 15 μL/19 injections) into 7 μM AbeH in the presence of sodium dithionite (Figure 4B)
# 1.4 mM Trp (3 μL/1 and 10 μL/29 injections) into 43 μM AbeH (Figure S7)
# 16 mM Trp (2 μL/1 and 10 μL/29 injections) into 18 μM AbeH (Figure 5A)
# as §3
# BorH/FAD = test: Isothermal titration calorimetry, Trp into BorH preincubated with FAD; assay type: binding, uncultured soil actinomycetes
# Procedure: as §1, with “ITC experiments were performed using a VP-ITC isothermal titration calorimeter (MicroCal) in 20 mM HEPES pH 7.5, 350 mM NaCl, 1 mM ethylenediamine tetraacetic acid (EDTA) and 15% (v/v) glycerol. Solutions” for “Solutions”, “To test FADH2 binding to AbeH and BorH, FAD was reduced to FADH2 using sodium dithionite and stored under N2.” left out
# ITC experiments were performed with reference power set to 10 μcal/s and Milli-Q water in the reference cell. […] Heats of dilution for all titrants were measured by titrating ligand into buffer for binary complex titrations, and by titrating ligand into a solution containing the other ligand but no protein for ternary complex titration. […]
# Titrations were analyzed by manually integrating each injection, subtracting the heat of dilution, and carrying out nonlinear least-squares fit of the calorimetric binding data to a one-site model using Origin 7.0 (Origin Lab). […]
# AbeH [3] = molecular target: T2, AbeH; test: Quenching of AbeH intrinsic Trp fluorescence upon FAD titration; parameters: species or system uncultured soil actinomycetes; conditions: FAD binding to AbeH, 100 nM AbeH
# Procedure: (§4) Intrinsic tryptophan fluorescence spectroscopy was used to measure FAD binding to AbeH and BorH in 20 mM HEPES pH 7.7- and 50 mM sodium citrate. FAD was prepared in the same buffer and its concentration was determined spectrophotometrically as described earlier. Fluorescence experiments were performed as described earlier. FAD binding to apo-AbeH or apo-BorH was performed in duplicate with 100 nM fixed AbeH or BorH with variable FAD concentrations up to 30 and 70 μM, respectively. AbeH/FAD binding was monitored using excitation at 295 nm and emission at 328 nm. BorH/FAD binding was monitored using excitation at 290 nm and emission at 326 nm. Inner filter effect corrected fluorescence intensities were plotted against quenched intrinsic tryptophan fluorescence of AbeH and BorH. Data were fitted by nonlinear regression to eq 1 using GraphPad Prism 8.0.
# (§5) Figure S9: FAD binding determined by quenching of BorH and AbeH intrinsic Trp fluorescence.
# (§6) A. Variable concentrations of FAD (0-70 µM) were incubated with 100 nM BorH and Trp fluorescence was measured with excitation at 290 nm and emission at 326 nm. […]
# (§7) B. Variable concentrations of FAD (0-30 µM) were incubated with 100 nM AbeH and Trp fluorescence was measured […] with excitation at 295 nm and emission at 328 nm. […]
# BorH [4] = molecular target: T1, BorH; test: Quenching of BorH intrinsic Trp fluorescence upon FAD titration; parameters: species or system uncultured soil actinomycetes; conditions: 100 nM BorH; read-out: KD, FAD binding to BorH, BorH intrinsic Trp fluorescence
# Procedure: as §4, §5, §6, §7
# [5] = ITC, read-out: KD, binding to BorH, ITC
# T1 sequence (M9QSI0 1-529): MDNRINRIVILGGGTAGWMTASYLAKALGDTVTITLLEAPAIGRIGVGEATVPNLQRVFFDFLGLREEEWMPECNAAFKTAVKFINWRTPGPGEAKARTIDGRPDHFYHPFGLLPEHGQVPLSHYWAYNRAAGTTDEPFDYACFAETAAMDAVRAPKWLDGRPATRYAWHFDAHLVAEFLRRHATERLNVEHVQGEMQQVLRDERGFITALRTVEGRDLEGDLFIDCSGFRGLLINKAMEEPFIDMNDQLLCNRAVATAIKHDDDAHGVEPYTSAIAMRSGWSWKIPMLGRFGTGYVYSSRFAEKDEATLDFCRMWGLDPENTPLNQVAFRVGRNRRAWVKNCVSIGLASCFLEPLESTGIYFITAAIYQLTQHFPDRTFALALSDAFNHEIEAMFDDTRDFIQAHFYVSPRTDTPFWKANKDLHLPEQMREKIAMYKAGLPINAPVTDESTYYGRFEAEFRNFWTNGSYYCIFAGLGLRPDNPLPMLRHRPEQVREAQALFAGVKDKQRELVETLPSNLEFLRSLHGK
# T2 sequence (F6LWA5 entry or part of it): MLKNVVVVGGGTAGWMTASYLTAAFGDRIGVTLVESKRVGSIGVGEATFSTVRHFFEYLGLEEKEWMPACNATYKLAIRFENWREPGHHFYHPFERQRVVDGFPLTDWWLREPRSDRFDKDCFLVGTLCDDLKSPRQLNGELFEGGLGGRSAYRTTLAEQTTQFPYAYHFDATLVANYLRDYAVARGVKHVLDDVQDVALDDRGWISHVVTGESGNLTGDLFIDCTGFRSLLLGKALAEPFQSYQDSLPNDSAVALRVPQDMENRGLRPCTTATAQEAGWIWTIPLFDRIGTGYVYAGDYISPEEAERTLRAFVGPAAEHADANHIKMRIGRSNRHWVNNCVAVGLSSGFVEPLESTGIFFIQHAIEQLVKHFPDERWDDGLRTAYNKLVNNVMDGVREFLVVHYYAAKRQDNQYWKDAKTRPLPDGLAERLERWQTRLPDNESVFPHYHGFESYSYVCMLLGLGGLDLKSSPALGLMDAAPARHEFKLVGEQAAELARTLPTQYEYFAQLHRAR
structure (smiles),measurement,setting,value
"N[C@@H](Cc1c[nH]c2ccccc12)C(=O)O [Tryptophan, L-tryptophan]",Trp affinity of BorH higher than that of AbeH,BorH [1],2 fold
same,Trp affinity of BorH lower than the FAD affinity,BorH [1],30 ×
same,Kd,BorH [1]; [5],430 ± 60 µM
same,"-TDS (-TΔS, ITC, Table S3)",BorH [1]; cell BorH,-2.1 kJ/mol
same,"DG (ΔG, ITC, Table S3)",BorH [1]; cell BorH,-19.2 kJ/mol
same,"DH (ΔH, ITC, Table S3)",BorH [1]; cell BorH,-17.2 ± 1.3 kJ/mol
same,Kd,"BorH [1]; cell BorH, read-out: KD (ITC, Table S3)",435 µM
same,Kd,"BorH [1]; one-site model, n fixed to 1, read-out: KD for Trp/BorH, ITC",400 µM
same,Trp affinity of AbeH lower than the FAD affinity,AbeH [2],500 ×
same,Kd,"AbeH [2]; KD (ITC, Table S3), cell AbeH",833 µM
same,Kd,"AbeH [2]; KD for Trp/AbeH, ITC, one-site model, n fixed to 1",800 µM
same,"Heat of binding, Trp titrated into AbeH at low molar ratios","AbeH [2]; Trp:AbeH molar ratios between 0-9, 1.4 mM Trp into 43 μM AbeH",no significant heat of binding detected
same,"-TDS (-TΔS, ITC, Table S3)",AbeH [2]; cell AbeH,1.7 kJ/mol
same,"DG (ΔG, ITC, Table S3)",AbeH [2]; cell AbeH,-18 kJ/mol
same,"DH (ΔH, ITC, Table S3)",AbeH [2]; cell AbeH,-19.7 ± 1.7 kJ/mol
same,"Binding of Trp to preincubated BorH/FAD by ITC, in words","BorH/FAD; 21 mM Trp into 8 μM BorH preincubated with 5 mM FAD, listed as Trp",No binding was observed; also recorded: no evidence of Trp binding
same,"KD, Trp binding to BorH/FAD, ITC",BorH/FAD; BorH preincubated with FAD,no binding
Cc1cc2nc3c(=O)[nH]c(=O)nc-3n(C[C@H](O)[C@H](O)[C@H](O)COP(=O)(O)OP(=O)(O)OC[C@H]3O[C@@H](n4cnc5c(N)ncnc54)[C@H](O)[C@@H]3O)c2cc1C [FAD],Kd,AbeH [3],0.96 µM and 1 µM
same,Kd,BorH [1]; [5],13 ± 3.3 µM
same,"-TDS (-TΔS, ITC, Table S3)",BorH [1]; cell BorH,19.7 kJ/mol
same,"DG (ΔG, ITC, Table S3)",BorH [1]; cell BorH,-28 kJ/mol
same,"DH (ΔH, ITC, Table S3)",BorH [1]; cell BorH,-47.7 ± 1.7 kJ/mol
same,"n (ITC, Table S3)",BorH [1]; cell BorH,1.1 ± 0.4
same,Kd,"AbeH [2]; ITC, read-out: KD, binding to AbeH, ITC",1.2 ± 0.4 µM
same,"-TDS (-TΔS, ITC, Table S3)",AbeH [2]; cell AbeH,-15.1 kJ/mol
same,"DG (ΔG, ITC, Table S3)",AbeH [2]; cell AbeH,-34.3 kJ/mol
same,"DH (ΔH, ITC, Table S3)",AbeH [2]; cell AbeH,-19.2 ± 1.7 kJ/mol
same,"n (ITC, Table S3)",AbeH [2]; cell AbeH,0.93 ± 0.05
same,Kd,BorH [4],9.1 ± 2.4 µM
